Assay results as given in patent publication US11427586B2, “1,2,4-oxadiazole derivatives as liver X receptor agonists” (NOVARTIS AG, priority 2019, dated 2022).
Read-outs that look alike come from different tables or passages of the source.

Tests used:
SZ95 sebocytes = assay: Sentinel Lipid Assay (SLA), desaturation index in SZ95 sebocytes; assay type: cell-based; settings: Homo sapiens, 72 h; for EC50: read-out: SLA EC50
How it was run: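 SZ95 human sebocytes on fibronectin-coated plates, dosed 72 h at 37 °C with 1:3 dilutions from 10 μM; lipids extracted with deuterated triglyceride internal standards and quantified by LC-MS/MS (MRM) as 11 sentinel lipids. Desaturation index from elastic-net coefficients, normalized to DMSO; Amax relative to a reference LXR agonist.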

[1] = tested on: naive Sprague Dawley rats; assay: In vivo measurement of lowered meibum melting temperature; set-up: species or system rat; settings: for Change of Tm: meibum melting point versus vehicle, 1% suspension eye drops twice a day for fourteen days, rats; for meibum melting temperature (in words): rat eyes, concentration of 1%; for Mean ± SEM of Compound (meibum melting point): rat meibum, DSC peak temperature, 1% suspension as eye drops twice a day for fourteen days, in °C
Experimental: In Vivo Measurement of Lowered Meibum Melting Temperature
For compounds 8 and 57, the lowering of rat meibum melting temperature was measured in naive Sprague Dawley rats. The test animals were administered either vehicle, or a suspension of 1% of compound 8 or 1% of compound 57, as eye drops twice a day for fourteen days. The rat meibum was collected after administration of the compounds and analyzed by differential scanning calorimetry to measure the melting point. The lowering of meibum melting point in rats administered compound 8 or compound 57 was compared to the vehicle.
Melting properties of meibum were obtained using differential scanning calorimetry thermograms, recorded on a TA Discovery Q5000 (ThermoAnalytical). Samples were sealed in standard 40 μl aluminum pans and subjected to a heat-cool-heat cycle with melting temperatures being recorded on the second heating ramp. The samples were first heated to 150° C. at 30K/min then cooled −30° C. at 30K/min. Next, the sample was heated to 75° C. with an underlying heating rate of 2K/min, a period of modulation of 60 seconds and a temperature amplitude of modulation of 1° C. Dry N2 gas, at a flow rate of 50 mL/min was used to purge the DSC equipment during the measurement. Onset of melting and peak temperatures were recorded with peak temperature quoted as the melting point.
Results from the assay are shown Table 3 and in FIG. 4. Results were analyzed using an unpaired t test with Welch's correction.

SCD1 = assay: Measurement of SCD1 expression in SZ95-SCD1-HiBit cells (HiBiT assay); assay type: cell-based; settings: Homo sapiens; for EC50: read-out: HiBit EC50
[2] = normalized Amax based on the reference compound Amax of 100%, read-out: SLA Normalized Amax
[3] = SZ95 cells, desaturation index, lowest dose used 4.6 nM
[4] = SZ95 cells, compared to reference compound, read-out: SLA Amax
[5] = 48 h, normalized Amax based on the reference compound Amax of 100%, read-out: HiBit Normalized Amax
[6] = SZ95-SCD1-HiBit cells, 48 h, SCD1 protein production, luminescence, initial dilution 1:3 in DMSO
[7] = SZ95-SCD1-HiBit cells, 48 h, compared to reference compound, read-out: HiBit Amax
[8] = 48 h, read-out: HiBit Normalized Amax

EC50 (SZ95 sebocytes; [3]) [nM] | EC50 (SCD1; [6]) [nM] | EC50 (SCD1; footnote a: initial dilution for the compound 1:100 in assay medium rather than 1:3 in DMSO) [nM] | SMILES | Emax (SZ95 sebocytes; [2]) [%] | Emax (SZ95 sebocytes; [4]) [%] | Change of Tm [1] | meibum melting temperature (in words) [1] | Mean ± SEM of Compound (meibum melting point) [1] | Emax (SCD1; [5]) [%] | Emax (SCD1; [7]) [%] | Emax (SZ95 sebocytes; read-out: SLA Amax) [%] | EC50 (SZ95 sebocytes) [nM] | Emax (SZ95 sebocytes; read-out: SLA Normalized Amax) [%] | Emax (SCD1; 48 h, read-out: HiBit Amax) [%] | EC50 (SCD1; 48 h) [nM] | Emax (SCD1; [8]) [%]
≤ 4.6 | 0.111 | – | CC(C)CS(=O)(=O)c1ccccc1Oc1ccc(-c2noc(CN3C(=O)N(CCN4CCOCC4)C4(CCN(C5CCC5)CC4)C3=O)n2)cc1C(F)(F)F [Compound 8, 8-cyclobutyl-3-((3-(4-(2-(isobutylsulfonyl)phenoxy)-3-(trifluoromethyl)phenyl)-1,2,4-oxadiazol-5-yl)methyl)-1-(2-morpholinoethyl)-1,3,8-triazaspiro[4.5]decane-2,4-dione] | 230 | 221 | −1.977 ± 0.3731 | decrease | 28.29 ± 0.2920 | 120 | 114 | – | – | – | – | – | –
≤ 4.6 | 0.217 | – | CC(C)CS(=O)(=O)c1ccccc1Oc1ccc(-c2noc(CN3C(=O)N(CCN4CCOCC4)C(C)(C)C3=O)n2)cc1C(F)(F)F [Compound 57, 3-((3-(4-(2-(isobutylsulfonyl)phenoxy)-3-(trifluoromethyl)phenyl)-1,2,4-oxadiazol-5-yl)methyl)-5,5-dimethyl-1-(2-morpholinoethyl)imidazolidine-2,4-dione] | 176 | 169 | −2.181 ± 0.3731 | decrease | 28.08 ± 0.2945 | 88.4 | 84.1 | – | – | – | – | – | –
– | – | – | CC(COc1ccc(-c2noc(CN3C(=O)N(CCC4CCOCC4)C4(CCN(C5CCC5)CC4)C3=O)n2)cc1C(F)(F)F)(C(F)(F)F)C(F)(F)F [Compound 63, 8-cyclobutyl-1-(2-(tetrahydro-2H-pyran-4-yl)ethyl)-3-((3-(4-(3,3,3-trifluoro-2-methyl-2-(trifluoromethyl)propoxy)-3-(trifluoromethyl)phenyl)-1,2,4-oxadiazol-5-yl)methyl)-1,3,8-triazaspiro[4.5]decane-2,4-dione] | – | – | – | – | – | – | – | 72.2 | ≤ 4.6 | 75.2 | 74.6 | 0.217 | 78.4
– | – | – | CC1(C)C(=O)N(Cc2nc(-c3ccc(Oc4ccccc4S(=O)(=O)CC4CCCO4)c(C(F)(F)F)c3)no2)C(=O)N1CCN1CCOCC1 (stereo not drawn) [Compound 64, 5,5-dimethyl-1-(2-morpholinoethyl)-3-((3-(4-(2-(((tetrahydrofuran-2-yl)methyl)sulfonyl)phenoxy)-3-(trifluoromethyl)phenyl)-1,2,4-oxadiazol-5-yl)methyl)imidazolidine-2,4-dione] | – | – | – | – | – | – | – | 154 | ≤ 4.6 | 160 | 97.9 | 0.063 | 103
≤ 4.6 | 15.1 | – | CC1(C)C(=O)N(Cc2nc(-c3ccc(Oc4cnccc4C(F)(F)F)c(C(F)(F)F)c3)no2)C(=O)N1CCN1CCOCC1 [Compound 65, 5,5-dimethyl-1-(2-morpholinoethyl)-3-((3-(3-(trifluoromethyl)-4-((4-(trifluoromethyl)pyridin-3-yl)oxy)phenyl)-1,2,4-oxadiazol-5-yl)methyl)imidazolidine-2,4-dione] | 108 | 104 | – | – | – | 69.8 | 66.4 | – | – | – | – | – | –
21.1 | 187 | – | CC1(C)C(=O)N(Cc2nc(-c3ccc(OCCC(F)(F)F)c(C(F)(F)F)c3)no2)C(=O)N1CCN1CCOCC1 [Compound 66, 5,5-dimethyl-1-(2-morpholinoethyl)-3-((3-(3-(trifluoromethyl)-4-(3,3,3-trifluoropropoxy)phenyl)-1,2,4-oxadiazol-5-yl)methyl)imidazolidine-2,4-dione] | 99 | 95.1 | – | – | – | 82.3 | 78.2 | – | – | – | – | – | –
≤ 4.6 | 3.94 | – | CC(C)CS(=O)(=O)c1ccccc1Oc1ccc(-c2noc(CN3C(=O)N(CCN4CCOCC4)C4(CCN(C(=O)CCCCC(=O)O)CC4)C3=O)n2)cc1C(F)(F)F [Compound 67, 6-(3-((3-(4-(2-(isobutylsulfonyl)phenoxy)-3-(trifluoromethyl)phenyl)-1,2,4-oxadiazol-5-yl)methyl)-1-(2-morpholinoethyl)-2,4-dioxo-1,3,8-triazaspiro[4.5]decan-8-yl)-6-oxohexanoic acid] | 103 | 99.1 | – | – | – | 88.9 | 84.5 | – | – | – | – | – | –
> 10000 | – | 139 | CC1(C)NC(=O)N(Cc2nc(-c3ccc(Oc4ccccc4C(F)(F)F)c(C(F)(F)F)c3)no2)C1=O [Compound 71, 5,5-dimethyl-3-((3-(3-(trifluoromethyl)-4-(2-(trifluoromethyl)phenoxy)phenyl)-1,2,4-oxadiazol-5-yl)methyl)imidazolidine-2,4-dione] | 51.9 | 49.8 | – | – | – | 68.7 | 65.3 | – | – | – | – | – | –
87.3 | 65.4 | – | O=C(O)Cc1cccc(OCCCN(Cc2cccc(C(F)(F)F)c2Cl)CC(c2ccccc2)c2ccccc2)c1 [Reference Compound, 2-(3-(3-((2-chloro-3-(trifluoromethyl)benzyl)(2,2-diphenylethyl)amino)propoxy)phenyl)acetic acid, reference compound] | 100 | 96 | – | – | – | 100 | 95.1 | – | – | – | – | – | –
